The values that follow come from patent publication US12390437B2, “Itaconic acid derivatives and uses thereof intreating an inflammatory disease or a disease associated with an undesirable immune response” (Sitryx Therapeutics Limited, priority 2019, dated 2025).

By IC50 is commonly meant the concentration that inhibits the measured activity by half. Broadly, the Emax is the maximal effect, on the per cent scale that the assay sets. In general, EC50 refers to the concentration giving half of the maximal effect.

Assay [1] has as its system IL-6 cytokine output from THP-1s. The assay can be described thus: THP-1 AlphaLISA IL-6 cytokine assay. Type of assay: cell-based, human. To be noted: Homo sapiens; PMA-differentiated THP-1 cells, LPS 24 hr then Nigericin 1 hour. The procedure, abridged:
(§1)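 AlphaLISA read-out of cytokine released into supernatants of differentiated THP-1 cells. Cells were PMA-treated for 72 h, exposed to compound for 30 min, stimulated with LPS for 24 h, then given nigericin for 1 h before harvest. IC50 values come from normalised concentration-response curves.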

Another assay has as its system NQO1. The assay can be described thus: NQO1 enzyme activation assay as a readout of NRF2 activation in THP-1 cells. Type of assay: cell-based. Particulars: Homo sapiens; for Emax: THP-1, percentage activation at top concentration, normalised to DMF (100%) and vehicle controls; for EC50: differentiated THP-1 cells, LPS, 48 hr. How it is done: NQO1 Enzyme Activation Assay as a Readout of NRF2 Activation in THP-1 Cellular Background
NAD(P)H dehydrogenase [quinone] […] Induction of this gene is concomitant with the inhibition of proinflammatory cytokine transcription and suppression of the inflammatory response (Kobayashi E. H. et al., 2016). The NQO1 enzyme activation activities of compounds of formula (IW-1) were determined using a cellular based NQO1 activation assay (Abcam). The NQO1 activation assay was run in differentiated THP-1 cells (a human monocyte-like cell line) as described below. All reagents described are from Sigma-Aldrich unless specified otherwise. Compounds were prepared as 10 mM DMSO stocks.
THP-1 cells were expanded as a suspension up to 80% confluence in appropriate growth medium. Cells were harvested, suspended, treated with phorbol 12-myristate 13-acetate (PMA) and plated according to the cell density required for each plate format over a 72 hr period (37° C./5% CO2).
Following 72 hrs of THP-1 cell incubation, cellular medium was removed and replaced with fresh media. Working concentrations of compounds were prepared and pre-incubated for 30 minutes (37° C./5% CO2). Compound treatment was then applied to the PMA treated THP-1 cell plate followed by LPS treatment. A ‘low’ (DMSO vehicle only) control and ‘high’ (designated concentration of dimethyl fumarate) was applied to each plate at the point of compound treatment. Cells were subsequently incubated for a 48 hr period (37° C./5% C02) after which all NQO1 assay reagents were prepared according to the manufacturer's instructions. NQO1 extraction buffer was applied to PBS washed THP-1 cells and incubated on ice for 15 minutes to prepare THP-1 lysates for the NQO1 activity assay. THP-1 lysates were diluted 1:5 with PBS and treated with a 1:1 volume of kit prepared NQO1 Reaction Buffer. Absorbance was subsequently measured kinetically on an appropriate reader over a 6 minute period.
For activation determination, the fold change in response per well was determined by first calculating the average NQO1 activation data for the vehicle control and then dividing the individual well response by the averaged NQO1 response for the vehicle control as shown below: Fold change=(Sample value)/MeanMin Where ‘Min’=vehicle control only
The relative 50% activation concentration (EC50) was determined from the resulting fold change response curve. The maximum efficacy (Emax) was reported as the percentage activation calculated at the top concentration of compound used in the titration applied. If a full curve was unattainable preventing a correct curve fit, the Emax value was extrapolated using existing curve data. All percentage activation data were normalised to the DMF and vehicle controls, meaning the Emax represents the percentage […] achieved by a compound at a particular concentration relative to that achieved by DMF (set as the ‘High’ control and therefore representative of 100% activation).

In assay [2] the test system is IL-1β cytokine output from THP-1s. Kind of assay: THP-1 AlphaLISA IL-1β cytokine assay. Type of assay: cell-based, human. To be noted: Homo sapiens, THP-1, PMA-differentiated THP-1 cells, LPS 24 hr then Nigericin 1 hour; read-out: IL-1β (IC50). Summed up: as §1
Background: In Alpha technology, singlet oxygen from a donor bead excites a nearby acceptor bead.

The test system of the next assay is NRF2. Kind of assay: NRF2 +/-GSH activation assay (DiscoverX PathHunter NRF2 translocation kit, U2OS cells). It counts as cell-based. To be noted: Homo sapiens, GSH condition not stated in Table 5; for Emax: U2OS, normalised to dimethyl fumarate 'High' control, read-out: NRF2 activation Emax; for EC50: U2OS PathHunter cells, 6 hours, read-out: NRF2 activation EC50. Summed up: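 Percent activation, normalised to dimethyl fumarate (high) and vehicle (low) controls, was fitted for EC50 after 6 hours treatment of U2OS PathHunter cells. In the +GSH arm compounds were first pre-incubated 30 minutes in 6 mM working GSH; NRF2 translocation read by chemiluminescent complementation.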

`C=C(CC(=O)OC)C(=O)OCCC#N` [Example 10, 1-(2-cyanoethyl) 4-methyl 2-methylenesuccinate] showed an IC50 in assay [1] of 7.6 µM. In the assay on NQO1, this compound came in with an Emax of 107% and an EC50 of 15.2 µM. Moreover, the IC50 in assay [2] turned out to be 27.9 µM.
On to `C=C(CC(=O)OC)C(=O)OCCS(C)(=O)=O` [Example 12, 4-methyl 1-(2-(methylsulfonyl)ethyl) 2-methylenesuccinate], for which the concentration for half-maximal inhibition (IC50) in assay [1] was determined as 11.3 µM. In the assay on NQO1, the Emax turned out to be 88% and the midpoint of the response, the EC50, lay at 22.7 µM. In addition, the IC50 in assay [2] came to 28.2 µM.
The corresponding values for `C=C(CC(=O)OCCCCCCCC)C(=O)OCCC(=O)N(C)C` [Example 6, 1-(3-(dimethylamino)-3-oxopropyl) 4-octyl 2-methylenesuccinate] are 12.1 µM, 154%, 30.6 µM and 12.8 µM.
Consider `C=C(CC(=O)OCCCCCC)C(=O)OCCC#N` [Example 11, 1-(2-cyanoethyl) 4-hexyl 2-methylenesuccinate], for which, in the assay with NQO1, the Emax was found to be 124% and the EC50 amounted to 10.4 µM. In addition, in assay [2], the half-maximal inhibitory concentration (IC50) is 3.7 µM.
For the compound `C=C(CC(=O)OCCCOc1ccccc1)C(=O)OCCS(C)(=O)=O` [Example 20, 1-(2-(methylsulfonyl)ethyl) 4-(3-phenoxypropyl) 2-methylenesuccinate], the Emax with NRF2 is 116%; in the assay with NQO1, 224%. The values for the concentration for a half-maximal effect (EC50) in the assay with NRF2 and in the assay with NQO1 were 13.5 µM and 20 µM, respectively. The IC50 in assay [1] was found to be 3.4 µM; in assay [2] it was 5.6 µM.
For the compound `C=C(CC(=O)OCCCCCCCC)C(=O)OCCN(C)C` [Example 17, 1-(2-(dimethylamino)ethyl) 4-octyl 2-methylenesuccinate], the IC50 stood at 1.4 µM in assay [1] and 1.5 µM in assay [2]. In addition, the Emax with NQO1 is 68%. In addition, in the assay on NQO1, the EC50 is 2.6 µM.
The corresponding values for `C=C(CC(=O)OCCCC)C(=O)OCCS(C)(=O)=O` [Example 7, 4-butyl 1-(2-(methylsulfonyl)ethyl) 2-methylenesuccinate] are 12 µM, 16.7 µM, 78% and 7.3 µM.
As to `C=C(CC(=O)OCCCCCCCC)C(=O)OCCS(=O)(=O)c1ccc(C)cc1` [Example 40, 4-octyl 1-(2-tosylethyl) 2-methylenesuccinate], in assay [1], the IC50 amounted to 3.4 µM. In the assay on NQO1, this compound returned an Emax of 56% and an EC50 of 16.6 µM. Further, the IC50 in assay [2] came out at 1.7 µM.
Regarding `C=C(CC(=O)OCCCCCCCC)C(=O)OCCN1CCCC1=O` [Example 5, 4-octyl 1-(2-(2-oxopyrrolidin-1-yl)ethyl) 2-methylenesuccinate], the Emax in the assay on NRF2 was 216%; with NQO1 it was 81%. Moreover, the half-maximal effective concentration (EC50) is 5.7 µM in the assay on NRF2 and 5.9 µM in the assay with NQO1. Moreover, the half-inhibitory concentration (IC50) in assay [1] amounted to 2 µM; in assay [2], 6.5 µM.
`C=C(CC(=O)OCCCCCCCC)C(=O)OC(C)CS(C)(=O)=O` (centres unmarked) [Example 19, 1-(1-(methylsulfonyl)propan-2-yl) 4-octyl 2-methylenesuccinate] registered an IC50 in assay [1] of 1.9 µM. Moreover, in the assay with NQO1, the maximum response (Emax) is 44% and the EC50 stood at 51 µM. Also, the IC50 in assay [2] stood at 3.6 µM.
As for `C=C(CC(=O)OCCCCCC)C(=O)OCCS(C)(=O)=O` [Example 14, 4-hexyl 1-(2-(methylsulfonyl)ethyl) 2-methylenesuccinate], the Emax in the assay with NRF2 was 189%; in the assay on NQO1 it was 180%. For the same compound, the EC50 stood at 8.8 µM with NRF2 and 14.4 µM in the assay with NQO1. The results for the IC50 in assay [1] and in assay [2] were 2.1 µM and 1.6 µM, respectively.
The compound `C=C(CC(=O)OCCCCCC)C(=O)OC1COC1` [Example 38, 4-hexyl 1-(oxetan-3-yl) 2-methylenesuccinate] had a half-inhibitory concentration (IC50) in assay [1] of 6.8 µM. Further, in the assay with NQO1, the Emax came to 111% and the EC50 was 8.5 µM. Also, the concentration for half-maximal inhibition (IC50) in assay [2] is 7.4 µM.
For `C=C(CC(=O)OCCCCCCCC)C(=O)OCC(=O)N(C)C` [Example 21, 1-(2-(dimethylamino)-2-oxoethyl) 4-octyl 2-methylenesuccinate], inhibition in assay [1] was half-maximal at 2.4 µM (IC50). In the assay with NQO1, this compound came in with an Emax of 150% and a concentration for a half-maximal effect (EC50) of 12.1 µM. The 50% inhibitory concentration (IC50) in assay [2] stood at 2.9 µM.
The corresponding values for `C=C(CC(=O)OCCCC)C(=O)OCCS(=O)(=O)c1ccc(C)cc1` [Example 39, 4-butyl 1-(2-tosylethyl) 2-methylenesuccinate] are 7.3 µM, 59%, 1.3 µM and 5.1 µM.
Turning to `C=C(CC(=O)OCCCCCCCC)C(=O)OCCS(=O)(=O)N(C)C` [Example 16, 1-(2-(N,N-dimethylsulfamoyl)ethyl) 4-octyl 2-methylenesuccinate], the IC50 in assay [1] was found to be 1.1 µM. In the assay with NQO1, this compound came in with an Emax of 108% and a 50% effective concentration (EC50) of 19.8 µM. The IC50 in assay [2] turned out to be 1.7 µM.
